Data set [1] can be described thus: Solubility of ziprasidone hydrochloride monohydrate in excipients (Table 2). Type of data set: physicochemical. How it is done:
Solubility in various excipients that are frequently used to improve solubility was also tested and the results thereof are in Table 2 below.

A short description of data set [2]: Solubility of ziprasidone hydrochloride monohydrate in various solvents (Table 1). The class given is physicochemical.
For data set [3] the following is noted: Within 45 minutes; pH 7.5, 900 ml aqueous monobasic sodium phosphate with 2w/v % Na dodecyl sulfate, USP 2 paddles 75 rpm; formulation of U.S. Pat. No. 6,150,366, mean particle size <85 microns; cited from earlier work.

Counter-ions that a name gives are not always drawn. A value given as a limit tells only on which side of the number the result lay.

On to `O=C1Cc2cc(CCN3CCN(c4nsc5ccccc45)CC3)c(Cl)cc2N1` [Ziprasidone HCl monohydrate, ziprasidone hydrochloride monohydrate], for which the solubility in data set [1] (0.1 N HCl solution, simulated gastric fluid) is 500 µg/mL; in data set [1] (5% caprolactam in water, aqueous with cosolvent or surfactant or cyclodextrin, 5% caprolactam in solution in water), 300 µg/mL; in data set [1] (20% Lactic acid in PEG 400, organic solvent or mixture) it was 1300 µg/mL; in data set [1] (20% Lutrol in TPGS, organic solvent or mixture), 1000 µg/mL; in data set [1] (Benzyl alcohol, organic solvent or mixture) it was 2900 µg/mL; in data set [1] (Benzyl benzoate, organic solvent or mixture), 300 µg/mL. The solubility in data set [1] (Ethanol, organic solvent or mixture) was determined as 400 µg/mL; in data set [1] (Gelucire 44/14, oil or lipid) it was 1000 µg/mL; in data set [1] (Gelucire 50/13, oil or lipid), 1000 µg/mL; in data set [1] (Glacial acetic acid, organic solvent or mixture), 2800 µg/mL; in data set [1] (Glycerol, organic solvent or mixture), 1250 µg/mL; in data set [1] (Labrofac (Capric triglyceride PEG-4 ester), oil or lipid), 900 µg/mL. Also, the solubility came out at 10000 µg/mL in data set [1] (Lactic acid (85% strength), organic solvent or mixture); 1000 µg/mL in data set [1] (Maisine 35-1 (glycerol monolinoleate), oil or lipid); 10000 µg/mL in data set [1] (N-methyl 2-pyrrolidone, organic solvent or mixture); 2500 µg/mL in data set [1] (PEG 400, organic solvent or mixture); 2500 µg/mL in data set [1] (PEG 6000, organic solvent or mixture); 1000 µg/mL in data set [1] (Peceol (glycerol monooleate 40), oil or lipid). Moreover, the solubility in data set [1] (Propylene glycol, organic solvent or mixture) was 2000 µg/mL; in data set [1] (Span 80, organic solvent or mixture) it was 500 µg/mL; in data set [1] (Tween 20, organic solvent or mixture), 3000 µg/mL; in data set [1] (Tween 80, organic solvent or mixture), 2100 µg/mL; in data set [1] (Water), 30 µg/mL; in data set [1] (aqueous buffer, Phosphate buffer pH 6.8 (without SLS)) it was under 10 µg/mL. Further, the solubility in data set [2] (solvent ACN) is under 1%; in data set [2] (solvent Acetone) it was under 1%; in data set [2] (solvent Acetone/water) it was under 1%; in data set [2] (solvent DCM) it was under 1%; in data set [2] (solvent DMF/DMA/DMSO), 1.5%; in data set [2] (solvent DMF/water 80/20) it was under 1%. Moreover, the solubility in data set [2] (solvent Ethanol) was under 1%; in data set [2] (solvent Isopropanol) it was under 1%; in data set [2] (solvent Methanol), 1.5%; in data set [2] (solvent Methanol/acetic acid 90/10), under 1%; in data set [2] (solvent Methanol/water 60/40), under 1%; in data set [2] (solvent Methanol/water 80/20), 1.5%. This compound had a solubility in data set [2] (solvent THF) of under 1%.

Turning to Ziprasidone, the ziprasidone dissolved in data set [3] is reported as 70%.

Source of the values: US20080286373A1, “Ziprasidone formulations” (priority 2007, published 2008).
